{
  "source": "patent US20140113014A1",
  "about": "“CHICORY FOR PREVENTION AND TREATMENT OF NEURODEGENERATION” (NESTEC S.A., priority 2011, published 2014)",
  "tested_on": "primary cortical neurons",
  "assay": "Primary cortical neuron aging model, neuronal survival by NeuN count",
  "format": "cell-based, rat",
  "details": "run in parallel with the chicory extract",
  "excerpt": "A primary cortical culture system to study the effects of compounds on neuronal aging has been developed and applied to study the effects of chicory on neuronal survival. This cell culture system has been developed as a model of neuronal aging in order to mimic processes which occur during normal aging of neurons without a neurotoxic challenge. With this model beneficial effects against physiological neurodegeneration during aging can be studied and compounds which increase neuronal survival can be identified. This is a different approach from the models described in the prior art in which the cells are challenged with a neurotoxic insult in order to induce different degrees of neurodegeneration. Using immune-cytochemical analysis of the antigen, NeuN (Neuronal Nuclei), which is a sensitive marker of neurodegeneration, a reliable method for examining the lifespan of cortical neurons in culture has been established. The sensitivity of NeuN can be attributed to its steady reduction in expression intensity as neurons degenerate, which is in contrast to many antigens whose expression can distinguish only between living and dead neurons. Between four and six weeks after plating, the cortical neurons begin to degenerate, leading to a […] in NeuN count over this time (FIG. 1A). […] All tests were fixed at a time point between 6 and 8 weeks. […]",
  "data": [
    {"smiles": "O=C(Nc1cccc([N+](=O)[O-])c1)c1cccc(S(=O)(=O)N2CCCCCC2)c1", "note": "[AK-1]", "values": [
      {"measurement": "neuroprotective effect of the positive control relative to the chicory extract", "value": "smaller neuroprotective effect than the chicory extract"},
      {"measurement": "neuroprotective effect of the positive control versus non-treated cells", "value": "significantly positive over non-treated cells"}
    ]}
  ]
}
